Patent publication US12006321B2, “Substituted pyrazolo[1,5-a]pyrimidines as apelin receptor agonists” (Sanford Burnham Prebys Medical Discovery Institute, priority 2017, dated 2024)

These compounds were tested against T1, human apelin receptor (APJ, APLNR) (Homo sapiens, UniProt P35414) (assay: cell-based cAMP assay (TR-FRET) in Chinese hamster ovary cells expressing the apelin receptor). Conditions: EC50 = 50% of control (apelin-13, 1 nM) response; cAMP in CHO cells, 0.5 h incubation; read-out: Potency Category.
T1 construct: host or cells: Chinese hamster ovary (CHO) cells, stably integrated receptor
T1 sequence (P35414 1-380): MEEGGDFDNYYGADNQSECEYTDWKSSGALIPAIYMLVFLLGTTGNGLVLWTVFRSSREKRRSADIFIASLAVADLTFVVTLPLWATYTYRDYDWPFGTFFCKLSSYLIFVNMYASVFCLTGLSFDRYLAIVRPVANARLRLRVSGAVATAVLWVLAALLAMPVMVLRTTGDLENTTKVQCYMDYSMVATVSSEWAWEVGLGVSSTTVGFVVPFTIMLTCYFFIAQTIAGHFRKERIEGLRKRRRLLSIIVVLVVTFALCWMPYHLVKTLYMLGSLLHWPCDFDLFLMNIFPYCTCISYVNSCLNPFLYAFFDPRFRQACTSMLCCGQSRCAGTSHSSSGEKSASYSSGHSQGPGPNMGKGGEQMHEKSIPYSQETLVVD
Summary of the method: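 CHO cells stably expressing human APJ were forskolin-stimulated, then exposed to compound (0.0-100 μM, ≤1% DMSO) for 0.5 h. Lysate cAMP read by competitive TR-FRET immunoassay; EC50 and efficacy expressed relative to 1 nM apelin-13, four-parameter fit over ≥10 concentrations.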

Compound | EC50
COC(=O)c1cc(C(C)C)n2nc(C(=O)OC)c(-c3c(C)cccc3C)c2n1 [Compound 95, methyl 3-(2,6-dimethylphenyl)-2-(methoxycarbonyl)-7-(methylethyl)-8-hydropyrazolo[1,5-a]pyrimidine-5-carboxylate] | > 500 nM
CCOC(=O)c1cc(N2CCOCC2)n2nc(C)c(-c3c(C)cccc3C)c2n1 [Compound 97, ethyl 3-(2,6-dimethylphenyl)-2-methyl-7-morpholin-4-yl-8-hydropyrazolo[1,5-a]pyrimidine-5-carboxylate] | > 500 nM
CCOC(=O)c1cc(C(C)C)n2nc(C(=O)N(C)C)c(-c3c(C)cccc3C)c2n1 [Compound 100, ethyl 2-(N,N-dimethylcarbamoyl)-3-(2,6-dimethylphenyl)-7-(methylethyl)-8-hydropyrazolo[1,5-a]pyrimidine-5-carboxylate] | > 500 nM
Cc1cccc(C)c1-c1c(C(=O)N(C)C)nn2c(C(C)C)cc(C(=O)O)nc12 [Compound 101, 2-(N,N-dimethylcarbamoyl)-3-(2,6-dimethylphenyl)-7-(methylethyl)-8-hydropyrazolo[1,5-a]pyrimidine-5-carboxylic acid] | > 500 nM
Cc1cccc(C)c1-c1c(C)nn2c(N3CCN(C)CC3)cc(C(=O)O)nc12 [Compound 106, 3-(2,6-dimethylphenyl)-2-methyl-7-(4-methylpiperazinyl)-8-hydropyrazolo[1,5-a]pyrimidine-5-carboxylic acid] | > 500 nM
CCOC(=O)c1cc(N2CCN(C)CC2)n2nc(C)c(-c3c(C)cccc3C)c2n1 [Compound 108, ethyl 3-(2,6-dimethylphenyl)-2-methyl-7-(4-methylpiperazinyl)-8-hydropyrazolo[1,5-a]pyrimidine-5-carboxylate] | > 500 nM
Cc1cccc(C)c1-c1c(C)nn2c(C(C)C)cc(N)nc12 [Compound 110, 3-(2,6-dimethylphenyl)-2-methyl-7-(methylethyl)-8-hydropyrazolo[1,5-a]pyrimidine-5-ylamine] | > 500 nM
CCOC(=O)c1cc(C(C)C)n2nc(C)c(-c3c(F)cccc3Cl)c2n1 [Compound 112, ethyl 3-(2-chloro-6-fluorophenyl)-2-methyl-7-(methylethyl)-8-hydropyrazolo[1,5-a]pyrimidine-5-carboxylate] | > 500 nM
Cc1nn2c(C(C)C)cc(C(=O)O)nc2c1-c1c(Cl)cccc1Cl [Compound 115, 3-(2,6-dichlorophenyl)-2-methyl-7-(methylethyl)-8-hydropyrazolo[1,5-a]pyrimidine-5-carboxylic acid] | > 500 nM
CCc1cccc(CC)c1-c1c(C)nn2c(C(C)C)cc(C(=O)O)nc12 [Compound 116] | 200 to 500 nM
CCOC(=O)c1cc(Nc2ccccc2)n2nc(C)c(-c3c(C)cccc3C)c2n1 [Compound 117, ethyl 3-(2,6-dimethylphenyl)-2-methyl-7-(phenylamino)-8-hydropyrazolo[1,5-a]pyrimidine-5-carboxylate] | > 500 nM
Cc1cccc(C)c1-c1c(C)nn2c(Nc3ccccc3)cc(C(=O)O)nc12 [Compound 118, 3-(2,6-dimethylphenyl)-2-methyl-7-(phenylamino)-8-hydropyrazolo[1,5-a]pyrimidine-5-carboxylic acid] | > 500 nM
COC(=O)c1cc(N2CCCC2)n2nc(C)c(-c3c(C)cccc3C)c2n1 [Compound 122, methyl 3-(2,6-dimethylphenyl)-2-methyl-7-pyrrolidinyl-8-hydropyrazolo[1,5-a]pyrimidine-5-carboxylate] | > 500 nM
Cc1cccc(C)c1-c1c(C)nn2c(N3CCCC3)cc(C(=O)O)nc12 [Compound 123, 3-(2,6-dimethylphenyl)-2-methyl-7-pyrrolidinyl-8-hydropyrazolo[1,5-a]pyrimidine-5-carboxylic acid] | > 500 nM
COC(=O)c1cc(N2CCCCC2)n2nc(C)c(-c3c(C)cccc3C)c2n1 [Compound 124, methyl 3-(2,6-dimethylphenyl)-2-methyl-7-piperidyl-8-hydropyrazolo[1,5-a]pyrimidine-5-carboxylate] | > 500 nM
Cc1cccc(C)c1-c1c(C)nn2c(N3CCCCC3)cc(C(=O)O)nc12 [Compound 125, 3-(2,6-dimethylphenyl)-2-methyl-7-piperidyl-8-hydropyrazolo[1,5-a]pyrimidine-5-carboxylic acid] | > 500 nM
Cc1cccc(C)c1-c1c(C)nn2c(-c3ccncc3)cc(C(=O)O)nc12 [Compound 126, 3-(2,6-dimethylphenyl)-2-methyl-7-(4-pyridyl)-8-hydropyrazolo[1,5-a]pyrimidine-5-carboxylic acid] | > 500 nM
Cc1cccc(C)c1-c1c(C)nn2c(C3=CCCC3)cc(C(=O)O)nc12 [Compound 127, 3-(2,6-dimethylphenyl)-7-cyclopent-1-enyl-2-methyl-8-hydropyrazolo[1,5-a]pyrimidine-5-carboxylic acid] | > 500 nM

The remaining lines, values ahead:

EC50 | Compound
200 to 500 nM | Cc1cccc(Cl)c1-c1c(C)nn2c(C(C)C)cc(C(=O)O)nc12 [Compound 93, 3-(6-chloro-2-methylphenyl)-2-methyl-7-(methylethyl)-8-hydropyrazolo[1,5-a]pyrimidine-5-carboxylic acid]
> 500 nM | CCOC(=O)c1cc(C(C)C)n2nc(C)c(-c3c(C)cccc3Cl)c2n1 [Compound 94, ethyl 3-(6-chloro-2-methylphenyl)-2-methyl-7-(methylethyl)-8-hydropyrazolo[1,5-a]pyrimidine-5-carboxylate]
> 500 nM | Cc1cccc(C)c1-c1c(C(=O)O)nn2c(C(C)C)cc(C(=O)O)nc12 [Compound 96, 3-(2,6-dimethylphenyl)-7-(methylethyl)-8-hydropyrazolo[1,5-a]pyrimidine-2,5-dicarboxylic acid]
> 500 nM | Cc1cccc(C)c1-c1c(C)nn2c(N3CCOCC3)cc(C(=O)O)nc12 [Compound 98, 3-(2,6-dimethylphenyl)-2-methyl-7-morpholin-4-yl-8-hydropyrazolo[1,5-a]pyrimidine-5-carboxylic acid]
> 500 nM | COc1cc(C(=O)O)nc2c(-c3c(C)cccc3C)c(C)nn12 [Compound 99, 3-(2,6-dimethylphenyl)-7-methoxy-2-methyl-8-hydropyrazolo[1,5-a]pyrimidine-5-carboxylic acid]
> 500 nM | CNc1cc(C(=O)O)nc2c(-c3c(C)cccc3C)c(C)nn12 [Compound 102, 3-(2,6-dimethylphenyl)-2-methyl-7-(methylamino)-8-hydropyrazolo[1,5-a]pyrimidine-5-carboxylic acid]
> 500 nM | Cc1cccc(C)c1-c1c(C)nn2c(N(C)C)cc(C(=O)O)nc12 [Compound 103, 7-(dimethylamino)-3-(2,6-dimethylphenyl)-2-methyl-8-hydropyrazolo[1,5-a]pyrimidine-5-carboxylic acid]
> 500 nM | Cc1nn2c(C(C)C)cc(C(=O)O)nc2c1-c1c(F)cccc1F [Compound 104, 3-(2,6-difluorophenyl)-2-methyl-7-(methylethyl)-8-hydropyrazolo[1,5-a]pyrimidine-5-carboxylic acid]
> 500 nM | CCOC(=O)c1cc(C(C)C)n2nc(C)c(-c3c(F)cccc3F)c2n1 [Compound 105, ethyl 3-(2,6-difluorophenyl)-2-methyl-7-(methylethyl)-8-hydropyrazolo[1,5-a]pyrimidine-5-carboxylate]
> 500 nM | Cc1cccc(C)c1-c1c(C)nn2c(Oc3ccccc3)cc(C(=O)O)nc12 [Compound 107, 3-(2,6-dimethylphenyl)-2-methyl-7-phenoxy-8-hydropyrazolo[1,5-a]pyrimidine-5-carboxylic acid]
> 500 nM | CCOC(=O)c1cc(Oc2ccccc2)n2nc(C)c(-c3c(C)cccc3C)c2n1 [Compound 109, ethyl 3-(2,6-dimethylphenyl)-2-methyl-7-phenoxy-8-hydropyrazolo[1,5-a]pyrimidine-5-carboxylate]
> 500 nM | CC(=O)Nc1cc(C(C)C)n2nc(C)c(-c3c(C)cccc3C)c2n1 [Compound 111, N-[3-(2,6-dimethylphenyl)-2-methyl-7-(methylethyl)-8-hydropyrazolo[1,5-a]pyrimidin-5-yl]acetamide]
> 500 nM | Cc1nn2c(C(C)C)cc(C(=O)O)nc2c1-c1c(F)cccc1Cl [Compound 113, 3-(2-chloro-6-fluorophenyl)-2-methyl-7-(methylethyl)-8-hydropyrazolo[1,5-a]pyrimidine-5-carboxylic acid]
> 500 nM | CCOC(=O)c1cc(C(C)C)n2nc(C)c(-c3c(Cl)cccc3Cl)c2n1 [Compound 114, ethyl 3-(2,6-dichlorophenyl)-2-methyl-7-(methylethyl)-8-hydropyrazolo[1,5-a]pyrimidine-5-carboxylate]
> 500 nM | COc1cccc(Cl)c1-c1c(C)nn2c(C(C)C)cc(C(=O)O)nc12 [Compound 119, 3-(6-chloro-2-methoxyphenyl)-2-methyl-7-(methylethyl)-8-hydropyrazolo[1,5-a]pyrimidine-5-carboxylic acid]
> 500 nM | Cc1nn2c(C(C)C)cc(C(=O)O)nc2c1-c1c(F)cccc1C#N [Compound 120, 3-(2-cyano-6-fluorophenyl)-2-methyl-7-(methylethyl)-8-hydropyrazolo[1,5-a]pyrimidine-5-carboxylic acid]
> 500 nM | CCc1cccc(C)c1-c1c(C)nn2c(C(C)C)cc(C(=O)O)nc12 [Compound 121, 3-(6-ethyl-2-methylphenyl)-2-methyl-7-(methylethyl)-8-hydropyrazolo[1,5-a]pyrimidine-5-carboxylic acid]
